Data set [1] in a line: in vivo. The note with it: BALB/c, mouse, po, 25 mg/kg.
Data set [2] in a line: in vivo. The note with it: BALB/c, mouse, po, 25 mg/kg. This is another data set of the same source.
The nature of data set [3]: in vivo. The note with it: BALB/c, mouse, iv, 5 mg/kg.
A short description of data set [4]: in vivo. The following applies: BALB/c, mouse, iv, 5 mg/kg. The source holds these as a separate data set.
A short description of data set [5]: in vivo. The note with it: BALB/c, mouse, iv, 5 mg/kg. This is another data set of the same source.
Data set [6] can be described thus: in vivo. The note with it: BALB/c, mouse, iv, 5 mg/kg. This is another data set of the same source.
A short description of data set [7]: in vivo. The note with it: BALB/c, mouse, po, 25 mg/kg. This is another data set of the same source.
A short description of data set [8]: in vivo. The following applies: BALB/c, mouse, iv, 5 mg/kg. This is another data set of the same source.
A short description of data set [9]: in vivo. The following applies: BALB/c, mouse, po, 25 mg/kg. This is another data set of the same source.
The nature of data set [10]: in vivo. The note with it: BALB/c, mouse, po, 25 mg/kg. This is another data set of the same source.
Data set [11] can be described thus: in vitro. The note with it: mouse, liver microsomes. Background: Liver microsomes are a subcellular fraction often used to study metabolism.
A short description of data set [12]: in vitro. The following applies: mouse, liver microsomes. The source holds these as a separate data set.
Data set [13] can be described thus: in vitro. The note with it: human, liver microsomes.
Data set [14] in a line: in vitro. The note with it: human, liver microsomes. The source holds these as a separate data set.

Results on three compounds are retold here after ChEMBL document CHEMBL5365483, “Structure-Based Drug Design of Novel Triaminotriazine Derivatives as Orally Bioavailable IDH2R140Q Inhibitors with High Selectivity and Reduced hERG Inhibitory Activity for the Treatment of Acute Myeloid Leukemia” (J Med Chem, 2023).

Regarding `CC(C)(O)CNc1nc(Nc2ccnc(C(F)(F)F)c2)nc(-c2cccc(C(F)(F)F)n2)n1` [ENASIDENIB], the Cmax at 72 h in the data set “in vivo [1]” stood at 6390 ng/mL. The MRT at 72 h in the data set “in vivo [2]” was determined as 7.45 h. Further, the mean residence time MRT at 24 h in the data set “in vivo [3]” worked out at 4.9 h. The compound also returned a Cmax at 24 h in the data set “in vivo [4]” of 2840 ng/mL. Besides, the half-life at 24 h in the data set “in vivo [5]” is 2.71 h. In addition, the area under the curve AUC(0-inf) at 24 h in the data set “in vivo [6]” was 14000 ng·h/mL. The same compound came in with an AUC(0-inf) at 72 h in “in vivo [7]” of 87600 ng·h/mL. The compound further registered a clearance at 24 h in the data set “in vivo [8]” of 5.99 mL/min/kg. Besides, the bioavailability at 72 h in “in vivo [9]” stood at 125%. For the same compound, in the data set “in vivo [10]”, the half-life at 72 h is 6.98 h.
Turning to `CCOc1ccc(NC(C)=O)cc1` [PHENACETIN], the half-life at 1 h, 1 µM is 0.0567 h in “in vitro [11]” and 1.13 h in “in vitro [13]”. Moreover, the CLint scaled at 1 h, 1 µM in “in vitro [12]” was found to be 1590 mL/min/kg; in the data set “in vitro [14]” it was 23.6 mL/min/kg.
On to `O=C(O)Cc1ccccc1Nc1c(Cl)cccc1Cl` [DICLOFENAC], for which the half-life at 1 h, 1 µM came out at 0.402 h in “in vitro [11]” and 0.0883 h in the data set “in vitro [13]”. Also, the CLint scaled at 1 h, 1 µM in the data set “in vitro [12]” came to 226 mL/min/kg; in “in vitro [14]”, 302 mL/min/kg.

For orientation: Cmax means the maximum level reached in the sampled fluid or tissue. The MRT is the average time that molecules of a dose stay in the body. One may read the half-life as how long it takes for the measured level to halve. High values mean slow loss, low ones fast loss. For orientation: AUC(0-inf) means total exposure, with the tail of the curve extrapolated. One may read the clearance as a measure of how efficiently the substance is removed, as volume per time. Lower therefore signals inefficient removal. A word on the CLint scaled: it is the capacity of the preparation to metabolise the compound, expressed as a volume cleared per time. A lower CLint scaled goes with greater metabolic stability.
